In ChEMBL document CHEMBL4507266, “Data for DCP probe BAY-784” (2021):

Key:
[1] = tested on: Serine/threonine-protein kinase B-raf (Homo sapiens), P15056 [V600E]; conditions: Compound concentration 1000.0 nM
[2] = target: Mitogen-activated protein kinase kinase kinase 11 (Homo sapiens) (UniProt Q16584); conditions: Compound concentration 1000.0 nM
[3] = target: Mitogen-activated protein kinase 14 (Homo sapiens) (UniProt Q16539); conditions: Compound concentration 1000.0 nM
[4] = target: Mitogen-activated protein kinase 4 (Homo sapiens) (UniProt P31152); conditions: Compound concentration 1000.0 nM
[5] = target: Protein kinase C epsilon type (Homo sapiens) (UniProt Q02156); conditions: Compound concentration 1000.0 nM
Chain of Protein kinase C epsilon type (Homo sapiens) (Q02156 whole entry): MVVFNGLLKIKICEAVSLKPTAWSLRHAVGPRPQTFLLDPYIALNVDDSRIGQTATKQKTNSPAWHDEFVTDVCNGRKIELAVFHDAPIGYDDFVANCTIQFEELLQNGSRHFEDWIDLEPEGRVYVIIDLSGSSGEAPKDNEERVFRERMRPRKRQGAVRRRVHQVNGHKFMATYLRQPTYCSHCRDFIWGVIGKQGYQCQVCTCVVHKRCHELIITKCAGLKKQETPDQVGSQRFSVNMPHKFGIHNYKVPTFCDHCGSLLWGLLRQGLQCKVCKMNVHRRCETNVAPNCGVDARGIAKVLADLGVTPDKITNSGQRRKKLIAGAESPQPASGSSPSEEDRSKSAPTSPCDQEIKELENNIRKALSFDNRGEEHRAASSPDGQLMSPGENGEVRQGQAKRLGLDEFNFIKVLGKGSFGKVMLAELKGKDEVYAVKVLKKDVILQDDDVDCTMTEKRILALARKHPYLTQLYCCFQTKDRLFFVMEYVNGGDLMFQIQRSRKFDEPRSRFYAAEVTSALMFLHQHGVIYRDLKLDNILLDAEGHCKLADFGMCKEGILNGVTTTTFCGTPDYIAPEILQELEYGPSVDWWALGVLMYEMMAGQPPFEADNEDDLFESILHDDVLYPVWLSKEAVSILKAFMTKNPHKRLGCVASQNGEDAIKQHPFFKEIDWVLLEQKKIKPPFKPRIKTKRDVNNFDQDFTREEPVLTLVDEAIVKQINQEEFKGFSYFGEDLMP

[6] = target: Hepatocyte growth factor receptor (Homo sapiens) (UniProt P08581); conditions: Compound concentration 1000.0 nM
[7] = target: Dual specificity tyrosine-phosphorylation-regulated kinase 1A (Homo sapiens) (UniProt Q13627); conditions: Compound concentration 1000.0 nM
[8] = target: T1, Alpha-2B adrenergic receptor (Homo sapiens) (UniProt P18089); conditions: Compound concentration 10.0 uM
T1 sequence (whole entry): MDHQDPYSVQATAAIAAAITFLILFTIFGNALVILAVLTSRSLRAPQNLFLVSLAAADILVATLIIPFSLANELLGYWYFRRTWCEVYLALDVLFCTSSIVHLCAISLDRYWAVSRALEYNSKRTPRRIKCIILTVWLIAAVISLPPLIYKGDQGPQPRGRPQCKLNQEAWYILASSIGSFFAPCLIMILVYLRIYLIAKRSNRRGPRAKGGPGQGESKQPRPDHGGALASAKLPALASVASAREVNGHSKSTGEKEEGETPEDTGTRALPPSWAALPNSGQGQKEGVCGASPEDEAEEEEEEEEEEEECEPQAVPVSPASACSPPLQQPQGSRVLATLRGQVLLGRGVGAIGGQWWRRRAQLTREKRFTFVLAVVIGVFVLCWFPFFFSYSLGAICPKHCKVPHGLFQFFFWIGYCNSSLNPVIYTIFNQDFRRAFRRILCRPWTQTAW

[9] = target: Tyrosine-protein kinase BTK (Homo sapiens) (UniProt Q06187); conditions: Compound concentration 1000.0 nM
[10] = target: Protein-tyrosine kinase 2-beta (Homo sapiens) (UniProt Q14289); conditions: Compound concentration 1000.0 nM
[11] = target: Wee1-like protein kinase 2 (Homo sapiens) (UniProt P0C1S8); conditions: Compound concentration 1000.0 nM
[12] = tested on: Phosphatidylinositol 4,5-bisphosphate 3-kinase catalytic subunit alpha isoform (Homo sapiens), P42336 [I800L]; conditions: Compound concentration 1000.0 nM
[13] = target: Serine/threonine-protein kinase LATS1 (Homo sapiens) (UniProt O95835); conditions: Compound concentration 1000.0 nM
[14] = target: Serine/threonine-protein kinase RIO2 (Homo sapiens) (UniProt Q9BVS4); conditions: Compound concentration 1000.0 nM
[15] = target: Serine/threonine-protein kinase ULK3 (Homo sapiens) (UniProt Q6PHR2); conditions: Compound concentration 1000.0 nM
Chain of Serine/threonine-protein kinase ULK3 (Homo sapiens) (Q6PHR2 whole entry): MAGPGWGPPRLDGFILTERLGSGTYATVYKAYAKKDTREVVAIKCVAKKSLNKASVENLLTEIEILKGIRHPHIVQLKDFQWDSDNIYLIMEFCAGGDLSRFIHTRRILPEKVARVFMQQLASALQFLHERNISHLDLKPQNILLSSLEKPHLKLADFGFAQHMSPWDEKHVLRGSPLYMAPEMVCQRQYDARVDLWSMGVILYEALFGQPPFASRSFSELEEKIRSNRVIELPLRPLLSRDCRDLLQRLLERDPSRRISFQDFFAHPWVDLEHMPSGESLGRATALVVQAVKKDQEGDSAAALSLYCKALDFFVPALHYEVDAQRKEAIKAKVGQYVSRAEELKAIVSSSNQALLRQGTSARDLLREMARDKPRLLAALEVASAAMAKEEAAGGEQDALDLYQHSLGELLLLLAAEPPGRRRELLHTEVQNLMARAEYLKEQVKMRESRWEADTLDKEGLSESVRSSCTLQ

[16] = target: AP2-associated protein kinase 1 (Homo sapiens) (UniProt Q2M2I8); conditions: Compound concentration 1000.0 nM
[17] = target: Myosin-IIIb (Homo sapiens) (UniProt Q8WXR4); conditions: Compound concentration 1000.0 nM
[18] = target: Mitotic checkpoint serine/threonine-protein kinase BUB1 (Homo sapiens) (UniProt O43683); conditions: Compound concentration 1000.0 nM
[19] = target: T2, Alpha-1D adrenergic receptor (Homo sapiens) (UniProt P25100); conditions: Compound concentration 10.0 uM
T2 sequence (whole entry): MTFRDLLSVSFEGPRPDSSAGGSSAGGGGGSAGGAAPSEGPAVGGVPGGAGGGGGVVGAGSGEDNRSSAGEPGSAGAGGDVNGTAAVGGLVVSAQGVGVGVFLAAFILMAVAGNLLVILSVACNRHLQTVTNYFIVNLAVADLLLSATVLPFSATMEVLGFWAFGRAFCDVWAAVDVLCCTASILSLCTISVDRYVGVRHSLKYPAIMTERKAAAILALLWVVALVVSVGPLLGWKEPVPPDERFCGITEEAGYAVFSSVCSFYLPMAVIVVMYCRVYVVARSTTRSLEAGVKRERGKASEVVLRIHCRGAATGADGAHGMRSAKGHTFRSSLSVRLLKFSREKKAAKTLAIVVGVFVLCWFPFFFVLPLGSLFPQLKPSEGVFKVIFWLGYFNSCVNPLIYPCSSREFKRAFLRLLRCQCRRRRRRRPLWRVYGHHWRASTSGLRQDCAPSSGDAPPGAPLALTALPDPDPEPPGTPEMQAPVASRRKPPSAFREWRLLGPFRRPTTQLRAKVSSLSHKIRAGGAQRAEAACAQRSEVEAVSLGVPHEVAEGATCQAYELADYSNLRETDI

[20] = target: Misshapen-like kinase 1 (Homo sapiens) (UniProt Q8N4C8); conditions: Compound concentration 1000.0 nM
[21] = target: Serine/threonine-protein kinase 36 (Homo sapiens) (UniProt Q9NRP7); conditions: Compound concentration 1000.0 nM
[22] = target: High affinity nerve growth factor receptor (Homo sapiens) (UniProt P04629); conditions: Compound concentration 1000.0 nM
[23] = tested on: Proto-oncogene tyrosine-protein kinase receptor Ret (Homo sapiens), P07949 [V804M]; conditions: Compound concentration 1000.0 nM
[24] = target: Calcium/calmodulin-dependent protein kinase type II subunit gamma (Homo sapiens) (UniProt Q13555); conditions: Compound concentration 1000.0 nM
[25] = target: Serine/threonine-protein kinase pim-1 (Homo sapiens) (UniProt P11309); conditions: Compound concentration 1000.0 nM
[26] = target: Ephrin type-B receptor 4 (Homo sapiens) (UniProt P54760); conditions: Compound concentration 1000.0 nM
Chain of Ephrin type-B receptor 4 (Homo sapiens) (P54760 whole entry, canonical isoform): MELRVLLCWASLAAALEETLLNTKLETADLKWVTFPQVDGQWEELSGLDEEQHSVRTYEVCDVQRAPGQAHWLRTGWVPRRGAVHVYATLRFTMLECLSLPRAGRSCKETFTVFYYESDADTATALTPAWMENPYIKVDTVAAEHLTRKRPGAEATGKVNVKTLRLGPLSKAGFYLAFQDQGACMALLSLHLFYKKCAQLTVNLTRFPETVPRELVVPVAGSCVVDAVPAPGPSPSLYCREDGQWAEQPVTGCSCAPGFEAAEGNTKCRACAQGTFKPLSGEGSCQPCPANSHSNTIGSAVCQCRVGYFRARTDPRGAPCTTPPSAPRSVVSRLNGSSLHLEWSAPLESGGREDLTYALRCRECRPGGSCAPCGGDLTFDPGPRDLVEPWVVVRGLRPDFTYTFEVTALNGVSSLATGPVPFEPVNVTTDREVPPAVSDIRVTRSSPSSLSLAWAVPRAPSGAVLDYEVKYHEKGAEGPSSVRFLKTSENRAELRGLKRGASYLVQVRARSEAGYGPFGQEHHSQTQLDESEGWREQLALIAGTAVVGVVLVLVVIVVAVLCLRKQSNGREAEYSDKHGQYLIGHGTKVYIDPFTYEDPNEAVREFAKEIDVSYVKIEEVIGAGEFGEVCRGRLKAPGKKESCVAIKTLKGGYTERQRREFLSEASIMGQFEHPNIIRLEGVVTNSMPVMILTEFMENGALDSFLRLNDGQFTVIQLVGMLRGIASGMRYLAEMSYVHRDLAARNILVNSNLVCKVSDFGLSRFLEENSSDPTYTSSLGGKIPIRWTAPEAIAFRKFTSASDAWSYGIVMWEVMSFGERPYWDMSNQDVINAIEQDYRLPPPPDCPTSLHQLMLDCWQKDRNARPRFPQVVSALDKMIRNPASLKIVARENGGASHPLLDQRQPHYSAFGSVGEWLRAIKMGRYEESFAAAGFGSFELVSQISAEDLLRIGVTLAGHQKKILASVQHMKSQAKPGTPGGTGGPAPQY

[27] = target: Phosphorylase b kinase regulatory subunit alpha, liver isoform (Homo sapiens) (UniProt P46019); conditions: Compound concentration 1000.0 nM
Chain of Phosphorylase b kinase regulatory subunit alpha, liver isoform (Homo sapiens) (P46019 whole entry, canonical isoform): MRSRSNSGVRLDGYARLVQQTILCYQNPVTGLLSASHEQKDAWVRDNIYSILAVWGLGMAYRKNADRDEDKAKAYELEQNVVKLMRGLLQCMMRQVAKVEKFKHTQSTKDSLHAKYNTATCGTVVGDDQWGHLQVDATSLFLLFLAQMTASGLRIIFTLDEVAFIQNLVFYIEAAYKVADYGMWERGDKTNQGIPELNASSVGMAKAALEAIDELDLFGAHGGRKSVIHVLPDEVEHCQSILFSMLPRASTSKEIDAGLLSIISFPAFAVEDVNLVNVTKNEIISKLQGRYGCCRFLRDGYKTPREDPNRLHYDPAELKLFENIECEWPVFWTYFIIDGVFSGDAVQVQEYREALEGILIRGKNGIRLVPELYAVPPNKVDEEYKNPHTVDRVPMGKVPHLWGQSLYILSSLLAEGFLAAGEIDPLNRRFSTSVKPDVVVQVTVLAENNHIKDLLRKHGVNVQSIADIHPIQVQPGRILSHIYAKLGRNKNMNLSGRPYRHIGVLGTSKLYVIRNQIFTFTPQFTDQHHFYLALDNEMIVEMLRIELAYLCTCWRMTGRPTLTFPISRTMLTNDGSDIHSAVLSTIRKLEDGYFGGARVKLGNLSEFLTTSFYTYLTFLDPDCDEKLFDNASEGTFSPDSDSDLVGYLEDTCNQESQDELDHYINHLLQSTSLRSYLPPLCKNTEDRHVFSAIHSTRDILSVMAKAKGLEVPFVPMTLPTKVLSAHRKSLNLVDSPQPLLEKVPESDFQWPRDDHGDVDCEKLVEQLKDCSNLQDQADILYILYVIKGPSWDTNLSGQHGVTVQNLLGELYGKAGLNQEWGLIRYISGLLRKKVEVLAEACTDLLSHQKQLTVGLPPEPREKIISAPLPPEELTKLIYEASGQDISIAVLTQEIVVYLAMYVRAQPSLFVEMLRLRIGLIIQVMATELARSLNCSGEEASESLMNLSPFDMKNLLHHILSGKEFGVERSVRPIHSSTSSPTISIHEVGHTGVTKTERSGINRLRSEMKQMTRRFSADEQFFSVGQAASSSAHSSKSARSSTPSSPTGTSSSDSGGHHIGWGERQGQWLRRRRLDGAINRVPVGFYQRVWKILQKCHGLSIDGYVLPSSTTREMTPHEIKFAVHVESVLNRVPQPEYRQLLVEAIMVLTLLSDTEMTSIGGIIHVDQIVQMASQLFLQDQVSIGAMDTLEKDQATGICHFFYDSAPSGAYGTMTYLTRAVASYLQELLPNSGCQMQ

[28] = target: Ribosomal protein S6 kinase alpha-5 (Homo sapiens) (UniProt O75582); conditions: Compound concentration 1000.0 nM
[29] = target: 5-hydroxytryptamine receptor 7 (Homo sapiens) (UniProt P34969); conditions: Compound concentration 10.0 uM
[30] = tested on: Receptor-type tyrosine-protein kinase FLT3 (Homo sapiens), P36888 [R834Q]; conditions: Compound concentration 1000.0 nM
[31] = target: Serine/threonine-protein kinase SIK2 (Homo sapiens) (UniProt Q9H0K1); conditions: Compound concentration 1000.0 nM

Chain of Serine/threonine-protein kinase B-raf (Homo sapiens), P15056 [V600E] (P15056 whole entry V600E): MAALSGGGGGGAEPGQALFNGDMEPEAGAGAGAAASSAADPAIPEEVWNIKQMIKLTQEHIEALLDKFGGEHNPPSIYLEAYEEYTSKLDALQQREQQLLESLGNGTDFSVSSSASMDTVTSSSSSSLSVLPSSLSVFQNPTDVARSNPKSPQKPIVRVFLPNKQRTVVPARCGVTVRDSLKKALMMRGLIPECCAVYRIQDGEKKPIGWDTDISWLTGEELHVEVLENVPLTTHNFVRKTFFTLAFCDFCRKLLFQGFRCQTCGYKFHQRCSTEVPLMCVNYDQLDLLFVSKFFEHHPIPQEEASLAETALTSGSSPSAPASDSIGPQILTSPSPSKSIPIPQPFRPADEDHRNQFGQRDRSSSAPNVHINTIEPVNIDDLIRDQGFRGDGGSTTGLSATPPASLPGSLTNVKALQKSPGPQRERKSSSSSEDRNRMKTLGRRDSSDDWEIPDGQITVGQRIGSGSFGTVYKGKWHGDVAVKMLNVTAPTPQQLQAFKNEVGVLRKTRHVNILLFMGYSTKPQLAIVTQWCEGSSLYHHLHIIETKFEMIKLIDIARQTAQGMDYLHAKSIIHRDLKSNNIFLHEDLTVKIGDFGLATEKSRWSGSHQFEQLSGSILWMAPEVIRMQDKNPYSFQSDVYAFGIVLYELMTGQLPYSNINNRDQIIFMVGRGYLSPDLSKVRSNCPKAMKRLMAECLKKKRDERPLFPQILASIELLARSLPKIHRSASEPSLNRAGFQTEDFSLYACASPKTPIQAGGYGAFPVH
Chain of Mitogen-activated protein kinase kinase kinase 11 (Homo sapiens) (Q16584 whole entry, looked up): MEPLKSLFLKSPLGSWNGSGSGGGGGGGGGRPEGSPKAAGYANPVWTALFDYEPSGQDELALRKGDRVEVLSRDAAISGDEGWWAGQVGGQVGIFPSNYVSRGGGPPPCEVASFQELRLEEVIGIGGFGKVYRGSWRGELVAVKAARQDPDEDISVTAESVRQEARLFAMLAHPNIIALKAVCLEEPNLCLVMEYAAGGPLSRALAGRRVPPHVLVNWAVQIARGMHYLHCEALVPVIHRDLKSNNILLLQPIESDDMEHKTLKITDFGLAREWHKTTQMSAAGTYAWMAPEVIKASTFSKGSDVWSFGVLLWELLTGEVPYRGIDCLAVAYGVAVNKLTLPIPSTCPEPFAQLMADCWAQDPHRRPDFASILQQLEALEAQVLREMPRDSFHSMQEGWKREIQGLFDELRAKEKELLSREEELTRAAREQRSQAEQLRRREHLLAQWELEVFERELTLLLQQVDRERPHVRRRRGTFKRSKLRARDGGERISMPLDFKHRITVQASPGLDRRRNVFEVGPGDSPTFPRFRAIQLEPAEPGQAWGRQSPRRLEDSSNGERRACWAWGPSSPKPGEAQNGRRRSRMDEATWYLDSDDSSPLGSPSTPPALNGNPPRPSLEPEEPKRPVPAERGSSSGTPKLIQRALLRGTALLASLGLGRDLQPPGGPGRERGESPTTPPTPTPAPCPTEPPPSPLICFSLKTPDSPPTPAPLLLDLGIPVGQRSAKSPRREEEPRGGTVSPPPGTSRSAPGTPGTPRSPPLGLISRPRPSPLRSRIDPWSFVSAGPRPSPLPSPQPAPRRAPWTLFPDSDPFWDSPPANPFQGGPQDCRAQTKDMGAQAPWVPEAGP

Work on `O=C(NCc1ncc(C(F)(F)F)cc1Cl)c1ccc2c(c1)C1(CCS(=O)(=O)CC1)[C@@H](C1CC1)N2S(=O)(=O)c1ccc(F)cc1` [BAY-786] yielded a residual activity [1] of 90%, a residual activity [2] of 100% and a residual activity [3] of 100%. For the same compound, the residual activity [4] was 89%, the residual activity [5] was 76% and the residual activity [6] was 81%. For the same compound, the residual activity [7] was 85%, the inhibition [8] was -1.68% and the residual activity [9] was 73%. It also gave a residual activity [10] of 100%, a residual activity [11] of 100% and a residual activity [12] of 78%. It also gave a residual activity [13] of 97%, a residual activity [14] of 77% and a residual activity [15] of 69%. For the same compound, the residual activity [16] was 100%, the residual activity [17] was 100% and the residual activity [18] was 1.9%. It also gave an inhibition [19] of -3.69%, a residual activity [20] of 85% and a residual activity [21] of 100%. For the same compound, the residual activity [22] was 75%, the residual activity [23] was 100% and the residual activity [24] was 84%. The residual activity [25] was 74%, the residual activity [26] was 94% and the residual activity [27] was 84%. For the same compound, the residual activity [28] was 97%, the inhibition [29] was -4.83% and the residual activity [30] was 84%. It also gave a residual activity [31] of 100%.

For `O=C(NCc1ncc(C(F)(F)F)cc1Cl)c1ccc2c(c1)C1(CCS(=O)(=O)CC1)[C@H](C1CC1)N2S(=O)(=O)c1ccc(F)cc1` [BAY-784], the residual activity [1] was 84%, the residual activity [2] was 100% and the residual activity [3] was 100%. It also gave a residual activity [4] of 91%, a residual activity [5] of 69% and a residual activity [6] of 100%. The residual activity [7] was 88%, the inhibition [8] was 13.5% and the residual activity [9] was 64%. The residual activity [10] was 100%, the residual activity [11] was 100% and the residual activity [12] was 78%. For the same compound, the residual activity [13] was 91%, the residual activity [14] was 77% and the residual activity [15] was 85%. For the same compound, the residual activity [16] was 99%, the residual activity [17] was 74% and the residual activity [18] was 68%. For the same compound, the inhibition [19] was 4.13%, the residual activity [20] was 90% and the residual activity [21] was 100%. For the same compound, the residual activity [22] was 80%, the residual activity [23] was 100% and the residual activity [24] was 100%. It also gave a residual activity [25] of 100%, a residual activity [26] of 100% and a residual activity [27] of 96%. The residual activity [28] was 100%, the inhibition [29] was -8.16% and the residual activity [30] was 90%. It also gave a residual activity [31] of 96%.
